From paper PMC8041284, “Tunable Methacrylamides for Covalent Ligand Directed Release Chemistry” (Journal of the American Chemical Society, 2021)

Biological target: BTK (Homo sapiens, UniProt Q06187)
Experiment: biochemical
Settings: read-out: BTK inhibition (%)

BTK, sequence (Q06187 402-655 limits assumed): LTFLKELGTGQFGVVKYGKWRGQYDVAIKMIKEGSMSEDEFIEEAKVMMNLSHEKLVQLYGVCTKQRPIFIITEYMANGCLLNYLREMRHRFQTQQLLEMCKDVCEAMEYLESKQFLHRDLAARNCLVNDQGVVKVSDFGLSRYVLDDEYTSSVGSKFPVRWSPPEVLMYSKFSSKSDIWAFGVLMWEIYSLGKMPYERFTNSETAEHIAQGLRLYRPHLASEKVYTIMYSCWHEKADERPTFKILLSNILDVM

In the case of C[C@]12CC[C@H](O)C[C@@H]1CC[C@@H]1[C@@H]2CC[C@]2(C)C(=O)CC[C@@H]12 [PCM-0214741], the inhibition at 10 µM is reported as -21.8%.

Same assay, conditions: read-out: BTK inhibition (%), 0.75 uM BTK, […] probe 3l, 15 min preincubation

Point of comparison: CC(=O)OC/C=C(/C)CCC=C(C)C [PCM-0216620], inhibition at 10 µM 1.5%. Against it:
- CC[C@H]1CN2CC[C@]3(C(=O)Nc4ccccc43)[C@@H]2C[C@@H]1/C(=C\OC)C(=O)OC [PCM-0216305] — higher, 3.9%
- NC1=NC(=O)/C(=C/c2ccc(O)cc2)S1 [PCM-0215596] — higher, 17%
- C[C@]12CC[C@H]3[C@@H](CC=C4CC(O)CC[C@@]43C)[C@@H]1CC[C@@H]2C(O)CC(O)(C(F)(F)F)C(F)(F)F (stereo partly drawn) [PCM-0215756] — higher, 11.6%
- Cn1nnnc1SCC1=C(C(=O)O)N2C(=O)[C@@H](NC(=O)[C@H](OC=O)c3ccccc3)[C@H]2SC1 [PCM-0214900] — higher, 8.6%
- CN(C)c1cccc(-c2c3c(=O)n(-c4ccccc4Cl)[nH]c3cc(=O)n2C)c1 [PCM-0215425] — lower, -1.4%
- O=CCc1ccccc1 [PCM-0216613] — higher, 6.9%
- Cc1nc(NC(=O)N2CCC[C@H]2C(N)=O)sc1-c1csc(C(C)(C)C)n1 [PCM-0095518] — higher, 7.6%
- CCCCCCCCCCCCCCCCCCCCCC(=O)O [PCM-0216151] — higher, 23.2%
- Cc1ccc(C(=O)O)c(O)c1 [PCM-0216186] — higher, 10%
- COc1ccc(C(C)=O)c(O)c1 [PCM-0091399] — higher, 6.2%
- Oc1c(F)cc(-c2cnccc2-c2ccc(N3CCOCC3)cc2)cc1F [PCM-0215582] — lower, -12.4%
- C=C1[C@H](OC(=O)/C=C(\C)CC)C[C@@H](C(C)C)[C@@H]2[C@@H]([C@@H](C)OC(C)=O)C(=O)C[C@@H]12 [PCM-0216448] — lower, -9.3%
- COc1ccc2[nH]c(=O)oc2c1 [PCM-0216501] — lower, -4.6%
- Oc1cccc(O)c1O [PCM-0214990] — lower, -12.4%
- N[C@@H](CCC(=O)O)C(=O)O [PCM-0215690] — higher, 10.2%
- COc1ccc(S(=O)(=O)Nc2nc(-c3cccc([N+](=O)[O-])c3)cs2)cc1OC [PCM-0215595] — higher, 7.7%
- COc1nc(N)nc2c1ncn2[C@@H]1O[C@H](CO)[C@@H](O)[C@@H]1O [PCM-0094930] — lower, -3.1%
- C[C@@H]1O[C@@H](O[C@H]2[C@H](O[C@H]3CC[C@@]4(C)[C@@H](CC[C@]5(C)[C@@H]4CC=C4[C@@H]6CC(C)(C)CC[C@]6(C(=O)O[C@@H]6O[C@H](CO[C@@H]7O[C@H](CO)[C@@H](O)[C@H](O)[C@H]7O)[C@@H](O)[C@H](O)[C@H]6O)CC[C@]45C)[C@]3(C)CO)OC[C@H](O)[C@@H]2O)[C@H](O)[C@H](O[C@@H]2O[C@H](CO)[C@@H](O)[C@H](O)[C@H]2O)[C@H]1O [PCM-0216447] — lower, -21.6%
- Nc1nc2c(ncn2[C@@H]2O[C@H](CO)[C@@H](O)[C@H]2O)c(=O)[nH]1 [PCM-0094848] — lower, 0%
- C=C1CC[C@@H]2[C@](C)(CO)[C@H](O)CC[C@@]2(C)[C@@H]1C/C=C1/C(=O)OC[C@H]1O [PCM-0094814] — lower, -6.2%
- O=C(O)CCCNC(=O)c1cccnc1 [PCM-0216143] — lower, -17%
- C=C1CCC[C@]2(C)C[C@@H]3OC(=O)C(C)=C3C[C@@H]12 [PCM-0216545] — lower, -38.6%
- NC(=O)c1cn(Cc2c(F)cccc2F)nn1 [PCM-0065619] — lower, -17.9%
- Cc1ccc(C(C)C)cc1 [PCM-0216218] — lower, -20.1%
- COc1ccc2c(c1)c(CC(=O)O)c(C)n2C(=O)c1ccc(Cl)cc1 [PCM-0216635] — higher, 10.8%
- C[C@]12C=CC(=O)N[C@@H]1CC[C@@H]1[C@@H]2CC[C@]2(C)[C@@H](C(=O)Nc3cc(C(F)(F)F)ccc3C(F)(F)F)CC[C@@H]12 [PCM-0214606] — lower, -4.7%
- C[n+]1c2ccccc2nc2ccccc21 [PCM-0216061] — higher, 64.9%
- CCCOC(C(=O)OC1CCN(C)CC1)(c1ccccc1)c1ccccc1 [PCM-0215115] — lower, -24.1%
- CCn1c(=O)c2c(nc(/C=C/c3ccc(OC)c(OC)c3)n2C)n(CC)c1=O [PCM-0095373] — lower, -25.7%
- CCN1CC(CCN2CCOCC2)C(c2ccccc2)(c2ccccc2)C1=O (stereo not drawn) [PCM-0095590] — higher, 8.6%
- CCCc1cc(C)[nH]c(=O)c1CNC(=O)c1cc(-c2ccc(N3CCN(C(C)C)CC3)nc2)cc2c1cnn2C(C)C [PCM-0095761] — lower, -29.3%
- CCc1cccc(CC)c1NC(=O)N1Cc2[nH]nc(NC(=O)c3ccc(N4CCN(C)CC4)cc3)c2C1 [PCM-0095127] — higher, 65.5%
- CC1=C(CC[C@@H](C)CO[C@@H]2O[C@H](CO)[C@@H](O)[C@H](O)[C@H]2O)O[C@H]2C[C@H]3[C@@H]4CC=C5C[C@@H](O[C@@H]6O[C@H](CO)[C@@H](O[C@@H]7O[C@@H](C)[C@H](O)[C@@H](O)[C@H]7O)[C@H](O)[C@H]6O[C@@H]6O[C@@H](C)[C@H](O)[C@@H](O)[C@H]6O)CC[C@]5(C)[C@H]4CC[C@]3(C)[C@@H]12 [PCM-0216365] — lower, -11.9%
- CCOc1cc([C@@H](CS(C)(=O)=O)N2C(=O)c3cccc(NC(C)=O)c3C2=O)ccc1OC [PCM-0095620] — higher, 9%
- CC(C)n1nccc1-c1ncccc1COc1cccc(O)c1C=O [PCM-0215847] — lower, -13.1%
- CC(C)NCC(O)c1ccccc1Cl (stereo not drawn) [PCM-0214757] — higher, 10.9%
- CC[C@@H](CO)NCCN[C@@H](CC)CO [PCM-0090100] — higher, 29.6%
- CN1Cc2c(ccc3c2OCO3)[C@@]2(C)[C@@H](O)Cc3cc4c(cc3[C@@H]12)OCO4 [PCM-0216379] — lower, -2.3%
- COc1ccccc1N1CCN(CCCNc2cc(=O)n(C)c(=O)n2C)CC1 [PCM-0064976] — lower, -0.8%
- CC1=C(/C=C/C(C)=C/C=C/C(C)=C\C(=O)O)C(C)(C)CCC1 [PCM-0065511] — lower, -42.1%
- COc1cc(C=O)ccc1O [PCM-0094868] — higher, 21.8%
- COc1ccc(S(=O)(=O)N(CCO)c2ccccc2CN(C)C/C=C/c2ccc(Cl)cc2)cc1 [PCM-0215495] — higher, 70.3%
- CN1CCN(Cc2ccc(-c3cnc4[nH]cc(-c5ccc6[nH]ccc6c5)c4c3)cc2)CC1 [PCM-0215377] — higher, 111%
- C[C@]12CC[C@H](O)CC1=CC[C@@H]1[C@@H]2CC[C@]2(C)C(n3cnc4ccccc43)=CC[C@@H]12 [PCM-0095399] — lower, 0%
- C[C@@H]1O[C@@H](O[C@H]2[C@H](Oc3cc(O)c(C(=O)CCc4ccc(O)cc4)c(O)c3)O[C@H](CO)[C@@H](O)[C@@H]2O)[C@H](O)[C@H](O)[C@H]1O [PCM-0094838] — higher, 14.8%
- C=C(C)C1CC=C(/C=N/O)CC1 (stereo not drawn) [PCM-0216339] — lower, -2.3%
- O=C(Nc1ccccc1Br)N[C@@H]1CCN(c2ccc(C(F)(F)F)cn2)C1 [PCM-0095337] — lower, -17.1%
- OCc1ccc(-c2ccc(-c3ccc(CO)s3)o2)s1 [PCM-0095348] — higher, 1.6%
- C[C@@H]1CC[C@@]2(OC1)O[C@H]1C[C@H]3[C@@H]4CC=C5C[C@@H](O[C@@H]6O[C@H](CO)[C@@H](O[C@@H]7O[C@@H](C)[C@H](O[C@@H]8O[C@@H](C)[C@H](O)[C@@H](O)[C@H]8O)[C@@H](O)[C@H]7O)[C@H](O)[C@H]6O[C@@H]6O[C@@H](C)[C@H](O)[C@@H](O)[C@H]6O)CC[C@]5(C)[C@H]4CC[C@]3(C)[C@@]1(O)[C@@H]2C [PCM-0216432] — lower, -12.4%
- NC12CC3CC(CC(C3)C1)C2 [PCM-0064405] — lower, -14.8%
- CN1CCC(=C2c3ccccc3CCc3cccnc32)CC1 [PCM-0090351] — lower, -2.8%
- O=C(CCc1ccc(O)cc1)c1c(O)cc(O)cc1O [PCM-0065552] — higher, 15.2%
- O=c1[nH]c(=O)n(C2CCCO2)cc1F (stereo not drawn) [PCM-0094899] — lower, -3.1%
- COC(=O)CCSCc1ccc(-c2onc(C)c2NC(=O)OC(C)c2ccccc2Cl)cc1 (stereo not drawn) [PCM-0095376] — higher, 20.2%
- CCCNC(=O)[C@H]1O[C@@H]1C(=O)N[C@H](C(=O)N1CCC[C@H]1C(=O)OC)[C@@H](C)CC [PCM-0215739] — lower, -31.7%
- CC(C)(O)CC(=O)NCCn1ccc2ncnc(Nc3ccc(Oc4cccc(C(F)(F)F)c4)c(Cl)c3)c21 [PCM-0095364] — higher, 73.8%
- OC[C@H]1O[C@H](O[C@H]2[C@H](O)[C@@H](O)C(O)O[C@@H]2CO)[C@H](O)[C@@H](O)[C@@H]1O (stereo partly drawn) [PCM-0215131] — lower, 0%
- CCCN1CCCC[C@H]1C(=O)Nc1c(C)cccc1C [PCM-0095613] — lower, -24.9%
- CCCCNc1ncc(C(=O)NCc2ccc(-n3ccnc3)cc2)c(NC2CCC(O)CC2)n1 (stereo not drawn) [PCM-0215319] — higher, 2.1%
- c1cncc(CN2CCC(n3ncc4c(N5CCOCC5)nc(-c5ccc6[nH]ccc6c5)nc43)CC2)c1 [PCM-0095384] — lower, -27.6%
- O=C(CCCCCCNC(=O)c1cnc(N(c2ccccc2)c2ccccc2Cl)nc1)NO [PCM-0214593] — lower, -6.9%
- C=C1CCC[C@]2(C)Cc3occ(C)c3C[C@@H]12 [PCM-0216433] — higher, 2.3%
- CC1(C)C2CCC1(C)C(O)C2 (stereo not drawn) [PCM-0214868] — higher, 1.6%
- CN1CCC(CNc2ccc3ncc(-c4cccc(OC(F)(F)F)c4)n3n2)CC1 [PCM-0095238] — higher, 45.5%
- CC/C(=C(\c1ccccc1)c1ccc(OCCN(C)C)cc1)c1ccccc1 [PCM-0064738] — higher, 7.6%
- COc1ccc(COc2cc3oc(=O)c4cc(C(C)O)ccc4c3cc2OC)cc1 (stereo not drawn) [PCM-0095280] — higher, 15.2%
- CN(C)CCOc1ccc(-c2nc(-c3ccc4c(c3)CCC4=NO)c(-c3ccncc3)[nH]2)cc1 [PCM-0095262] — lower, -2.1%
- CN1CCN(CCOc2cc(OC3CCOCC3)c3c(Nc4c(Cl)ccc5c4OCO5)ncnc3c2)CC1 [PCM-0094889] — higher, 59.3%
- N#CNC(=NCCCCCCOc1ccc(Cl)cc1)Nc1ccncc1 [PCM-0215563] — higher, 18.5%
- N[C@@H](CSCCCO)C(=O)O [PCM-0095309] — higher, 17.9%
- CC(C)c1cc2c(c(O)c1O)[C@@]13CCCC(C)(C)[C@@H]1C[C@@H]2OC3=O [PCM-0216410] — higher, 10.8%
- Cc1cccc(-c2[nH]c(CNc3ccccc3F)nc2-c2ccc3ncnn3c2)n1 [PCM-0215382] — lower, -1.5%
- Cc1cc2nc3c(=O)[nH]c(=O)nc-3n(C[C@H](O)[C@H](O)[C@H](O)COP(=O)(O)O)c2cc1C [PCM-0215946] — higher, 3.4%
